{"source": "paper PMC8605023", "about": "(Nature Communications, 2021)", "key": {"[1]": {"molecular_target": "T1, NTF2 domain of G3BP1 (Homo sapiens, UniProt Q13283)", "T1 construct": "made in house; host or cells: E. coli BL21-Gold(DE3)", "T1 sequence (Q13283 11-133 limits assumed)": "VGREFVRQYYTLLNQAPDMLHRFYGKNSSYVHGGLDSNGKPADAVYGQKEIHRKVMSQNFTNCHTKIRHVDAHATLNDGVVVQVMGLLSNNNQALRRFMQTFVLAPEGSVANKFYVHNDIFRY", "assay": "biochemical", "type": "binding"}, "[2]": {"molecular_target": "T2, NTF2 domain of G3BP2 (Homo sapiens, UniProt Q9UN86)", "T2 construct": "made in house; host or cells: E. coli BL21-Gold(DE3)", "T2 sequence (Q9UN86 11-133 limits assumed)": "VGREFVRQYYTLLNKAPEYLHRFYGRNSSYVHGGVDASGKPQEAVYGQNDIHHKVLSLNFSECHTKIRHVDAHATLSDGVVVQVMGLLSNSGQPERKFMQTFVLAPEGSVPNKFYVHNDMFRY", "assay": "biochemical", "type": "binding"}}, "note": "Peptide text beside a SMILES is read from it.", "data": [{"compound": "CC[C@H](C)[C@H](NC(=O)[C@H](Cc1ccccc1)NC(=O)[C@H](CC(N)=O)NC(=O)[C@H](Cc1ccc(O)cc1)NC(=O)[C@@H]1CCCN1C(=O)CNC(=O)[C@H](CCC(N)=O)NC(=O)[C@H](CCSC)NC(=O)[C@H](CCC(N)=O)NC(=O)[C@H](C)NC(C)=O)C(=O)N[C@@H](CCC(N)=O)C(=O)N[C@@H](CC(=O)O)C(=O)N[C@@H](CO)C(=O)N[C@@H](CCSC)C(=O)N[C@@H](CC(C)C)C(=O)N[C@@H](CC(=O)O)C(N)=O", "note": "[CAPRIN1 364-379 Human] (Ac-AQMQGPYNFIQDSMLD-NH2)", "values": [{"measurement": "IC50", "setting": "[1]", "value": 46, "unit": "µM"}, {"measurement": "Kd", "setting": "[2]", "value": 174, "unit": "µM"}]}, {"compound": "CC(=O)N[C@@H](CCC(=O)O)C(=O)N[C@@H](CO)C(=O)N[C@@H](CC(C)C)C(=O)N1CCC[C@H]1C(=O)N[C@@H](Cc1ccccc1)C(=O)N[C@@H](CO)C(=O)N[C@@H](Cc1ccccc1)C(=O)NCC(=O)N[C@H](C(=O)N[C@@H](CC(C)C)C(=O)N[C@@H](CO)C(=O)N[C@@H](CO)C(=O)N[C@@H](Cc1c[nH]c2ccccc12)C(=O)N[C@@H](CCC(=O)O)C(=O)N[C@@H](CC(C)C)C(=O)N[C@@H](CCC(=O)O)C(=O)O)[C@@H](C)O", "note": "[DDIT3 4-19 Human] (Ac-ESLPFSFGTLSSWELE-OH)", "values": [{"measurement": "IC50", "setting": "[1]", "value": 44, "unit": "µM"}, {"measurement": "Ki", "setting": "[1]", "value": 14, "unit": "µM"}, {"measurement": "Kd", "setting": "[2]", "value": 14, "unit": "µM"}]}, {"compound": "CC(=O)N[C@@H](C)C(=O)N1CCC[C@H]1C(=O)N[C@@H](CCCNC(=N)N)C(=O)N[C@@H](C)C(=O)N[C@H](C(=O)N[C@H](C(=O)N[C@@H](Cc1ccccc1)C(=O)NCC(=O)N[C@@H](CC(=O)O)C(=O)N[C@@H](CC(N)=O)C(=O)N[C@@H](CC(N)=O)C(=O)N[C@@H](CC(=O)O)C(=O)N[C@@H](CC(N)=O)C(=O)N[C@@H](CC(N)=O)C(=O)N[C@H](C(=O)N[C@@H](Cc1ccc(O)cc1)C(N)=O)[C@@H](C)O)[C@@H](C)O)C(C)C", "note": "[N 6-20 Mers1] (Ac-APRAVTFGDNNDNNTY-NH2)", "values": [{"measurement": "Kd", "setting": "[1]", "value": "51 ± 2", "unit": "µM"}, {"measurement": "Ki", "setting": "[1]", "value": 51, "unit": "µM"}, {"measurement": "Kd", "setting": "[2]", "value": 26, "unit": "µM"}, {"measurement": "Ki", "setting": "[2]", "value": 26, "unit": "µM"}]}, {"compound": "CC[C@H](C)[C@H](NC(=O)[C@H](CCCNC(=N)N)NC(=O)[C@@H]1CCCN1C(=O)[C@H](C)NC(C)=O)C(=O)N[C@H](C(=O)N[C@@H](Cc1ccccc1)C(=O)NCC(=O)NCC(=O)N1CCC[C@H]1C(=O)N[C@@H](CO)C(=O)N[C@@H](CC(=O)O)C(=O)N[C@@H](CO)C(=O)N[C@H](C(=O)NCC(=O)N[C@@H](CO)C(=O)N[C@@H](Cc1ccc(O)cc1)C(N)=O)[C@@H](C)O)[C@@H](C)O", "note": "[N 12-26 Sars-CoV2] (Ac-APRITFGGPSDSTGSY-NH2)", "values": [{"measurement": "IC50", "setting": "[1]", "value": 17, "unit": "µM"}, {"measurement": "Kd", "setting": "[1]", "value": 4, "unit": "µM"}, {"measurement": "Ki", "setting": "[1]", "value": 4, "unit": "µM"}, {"measurement": "IC50", "setting": "[2]", "value": 10, "unit": "µM"}]}, {"compound": "CC[C@H](C)[C@H](NC(=O)[C@H](CCCNC(=N)N)NC(=O)[C@@H]1CCCN1C(=O)[C@H](C)NC(C)=O)C(=O)N[C@H](C(=O)N[C@@H](Cc1ccccc1)C(=O)NCC(=O)NCC(=O)N1CCC[C@H]1C(=O)N[C@H](C(=O)N[C@@H](CC(=O)O)C(=O)N[C@@H](CO)C(=O)N[C@H](C(=O)N[C@@H](CC(=O)O)C(=O)N[C@@H](CC(N)=O)C(=O)N[C@@H](Cc1ccc(O)cc1)C(N)=O)[C@@H](C)O)[C@@H](C)O)[C@@H](C)O", "note": "[N 13-27 Sars-CoV] (Ac-APRITFGGPTDSTDNY-NH2)", "values": [{"measurement": "IC50", "setting": "[1]", "value": 10, "unit": "µM"}]}, {"compound": "CC(=O)N[C@@H](CCC(N)=O)C(=O)NCC(=O)N[C@@H](CCCCN)C(=O)N1CCC[C@H]1C(=O)N[C@@H](CC(C)C)C(=O)N[C@@H](CCC(=O)O)C(=O)N[C@@H](Cc1ccccc1)C(=O)NCC(=O)N[C@@H](C)C(=O)N[C@H](C(=O)N[C@@H](CO)C(=O)N[C@@H](C)C(=O)N[C@@H](C)C(=O)N[C@@H](CC(C)C)C(=O)N[C@@H](CCC(N)=O)C(=O)N[C@@H](Cc1ccc(O)cc1)C(N)=O)[C@@H](C)O", "note": "[NSP3 956-971 Sars-CoV2]", "values": [{"measurement": "Kd", "setting": "[2]", "value": "35 ± 13", "unit": "µM"}, {"measurement": "Ki", "setting": "[2]", "value": 35, "unit": "µM"}]}, {"compound": "CC(=O)N[C@@H](CCC(N)=O)C(=O)NCC(=O)N[C@@H](CC(C)C)C(=O)N1CCC[C@H]1C(=O)N[C@@H](CC(C)C)C(=O)N[C@@H](CCC(=O)O)C(=O)N[C@@H](Cc1ccccc1)C(=O)NCC(=O)N[C@@H](C)C(=O)N[C@@H](CO)C(=O)N[C@@H](C)C(=O)N[C@@H](CCC(=O)O)C(=O)N[C@H](C(=O)N[C@H](C(=O)N[C@@H](CCCNC(=N)N)C(=O)N[C@@H](Cc1ccc(O)cc1)C(N)=O)C(C)C)[C@@H](C)O", "note": "[NSP3 958-972 Sars-CoV]", "values": [{"measurement": "Kd", "setting": "[1]", "value": "119 ± 5", "unit": "µM"}, {"measurement": "Ki", "setting": "[1]", "value": 119, "unit": "µM"}, {"measurement": "Kd", "setting": "[2]", "value": "47 ± 2", "unit": "µM"}, {"measurement": "Ki", "setting": "[2]", "value": 47, "unit": "µM"}]}, {"compound": "CC(=O)N[C@@H](CC(C)C)C(=O)N[C@H](C(=O)N[C@@H](Cc1ccccc1)C(=O)NCC(=O)N[C@@H](CC(=O)O)C(=O)N[C@@H](Cc1ccccc1)C(=O)N[C@@H](CC(=O)O)C(=O)N[C@@H](CCC(=O)O)C(=O)N[C@@H](Cc1c[nH]cn1)C(=O)N[C@@H](CCC(=O)O)C(=O)N[C@H](C(=O)N[C@@H](CC(=O)O)C(=O)N[C@@H](Cc1ccc(O)cc1)C(N)=O)C(C)C)[C@@H](C)O", "note": "[NSP3 1785-1796 SFV]", "values": [{"measurement": "IC50", "setting": "[1]", "value": 23, "unit": "µM"}, {"measurement": "IC50", "setting": "[2]", "value": 13, "unit": "µM"}]}, {"compound": "CC[C@H](C)[C@H](NC(=O)CNC(=O)[C@H](CO)NC(=O)[C@H](C)NC(=O)[C@H](CC(C)C)NC(=O)[C@H](C)NC(=O)[C@H](CC(=O)O)NC(=O)[C@@H](NC(=O)[C@H](CCC(=O)O)NC(=O)[C@H](Cc1c[nH]cn1)NC(=O)[C@H](CCC(=O)O)NC(=O)[C@H](CC(=O)O)NC(=O)[C@H](Cc1ccccc1)NC(=O)[C@H](CC(=O)O)NC(=O)CNC(=O)[C@H](Cc1ccccc1)NC(=O)[C@@H](NC(=O)[C@H](CC(C)C)NC(C)=O)[C@@H](C)O)C(C)C)C(=O)N[C@H](C(=O)N[C@@H](Cc1ccccc1)C(=O)NCC(=O)N[C@@H](CC(=O)O)C(=O)N[C@@H](Cc1ccccc1)C(=O)N[C@@H](CC(=O)O)C(=O)N[C@@H](CC(=O)O)C(=O)N[C@@H](Cc1ccc(O)cc1)C(N)=O)[C@@H](C)O", "note": "[NSP3 1785-1809 SFV]", "values": [{"measurement": "Kd", "setting": "[1]", "value": 0.3, "unit": "µM"}, {"measurement": "Ki", "setting": "[1]", "value": 0.3, "unit": "µM"}, {"measurement": "binds stronger than the SARS-CoV-2 N peptide to both G3BP1 and G3BP2 (fold)", "setting": "[1]", "value": "approximately 10 fold"}, {"measurement": "Ki", "setting": "[2]", "value": 0.15, "unit": "µM"}]}, {"compound": "CC[C@H](C)[C@H](NC(=O)CNC(=O)[C@H](CO)NC(=O)[C@H](C)NC(=O)[C@H](CC(C)C)NC(=O)[C@H](C)NC(=O)[C@H](CC(=O)O)NC(C)=O)C(=O)N[C@H](C(=O)N[C@@H](Cc1ccccc1)C(=O)NCC(=O)N[C@@H](CC(=O)O)C(=O)N[C@@H](Cc1ccccc1)C(=O)N[C@@H](CC(=O)O)C(=O)N[C@@H](CC(=O)O)C(=O)N[C@@H](Cc1ccc(O)cc1)C(N)=O)[C@@H](C)O", "note": "[NSP3 1796-1809 SFV]", "values": [{"measurement": "IC50", "setting": "[2]", "value": 11, "unit": "µM"}]}, {"compound": "CC[C@H](C)[C@H](NC(=O)[C@@H]1CCCN1C(=O)[C@@H]1CCCN1C(=O)[C@@H](NC(=O)[C@@H]1CCCN1C(C)=O)C(C)C)C(=O)N[C@@H](CCC(=O)O)C(=O)N[C@@H](Cc1ccccc1)C(=O)NCC(=O)N[C@H](C(=O)N[C@@H](CO)C(=O)N1CCC[C@H]1C(=O)N[C@@H](CCCCN)C(=O)N[C@@H](CC(=O)O)C(=O)N[C@@H](CO)C(=O)N[C@@H](CC(=O)O)C(=O)N[C@@H](Cc1ccc(O)cc1)C(N)=O)C(C)C", "note": "[PRRC2B 1780-1794 Human] (Ac-PVPPIEFGVSPKDSDY-NH2)", "values": [{"measurement": "IC50", "setting": "[1]", "value": 33, "unit": "µM"}, {"measurement": "Ki", "setting": "[1]", "value": 10, "unit": "µM"}, {"measurement": "IC50", "setting": "[2]", "value": 53, "unit": "µM"}, {"measurement": "Kd", "setting": "[2]", "value": 10, "unit": "µM"}]}, {"compound": "CC(=O)N1CCC[C@H]1C(=O)N[C@@H](CO)C(=O)N[C@@H](CCCCN)C(=O)N[C@@H](CC(C)C)C(=O)N1CCC[C@H]1C(=O)N[C@H](C(=O)N[C@@H](Cc1ccccc1)C(=O)NCC(=O)N[C@@H](C)C(=O)N1CCC[C@H]1C(=O)N[C@@H](CCC(=O)O)C(=O)N[C@@H](CCC(N)=O)C(=O)N[C@@H](CC(C)C)C(=O)N[C@H](C(=O)N[C@@H](CC(=O)O)C(=O)N[C@@H](Cc1ccc(O)cc1)C(N)=O)C(C)C)[C@@H](C)O", "note": "[TRIM25 400-414 Human] (Ac-PSKLPTFGAPEQLVDY-NH2)", "values": [{"measurement": "Ki", "setting": "[1]", "value": 46, "unit": "µM"}, {"measurement": "IC50", "setting": "[2]", "value": 53, "unit": "µM"}, {"measurement": "Kd", "setting": "[2]", "value": 46, "unit": "µM"}]}]}
